Measurements from ChEMBL document CHEMBL1142460, “2,4(5)-Diarylimidazoles: synthesis and biological evaluation of a new class of sodium channel blockers against hNa(v)1.2” (Bioorg Med Chem Lett, 2008).

Key:
[1] = molecular target: Sodium channel protein type 2 subunit alpha (Homo sapiens) (UniProt Q99250); experiment: Inhibition of Nav1.2 channel in HEK cells at 10 uM by patch clamp technique; assay type: cell-based; design: scale not given: the % may be the effect or the level left; details: HEK293
Sodium channel protein type 2 subunit alpha (Homo sapiens), sequence (Q99250 whole entry, looked up): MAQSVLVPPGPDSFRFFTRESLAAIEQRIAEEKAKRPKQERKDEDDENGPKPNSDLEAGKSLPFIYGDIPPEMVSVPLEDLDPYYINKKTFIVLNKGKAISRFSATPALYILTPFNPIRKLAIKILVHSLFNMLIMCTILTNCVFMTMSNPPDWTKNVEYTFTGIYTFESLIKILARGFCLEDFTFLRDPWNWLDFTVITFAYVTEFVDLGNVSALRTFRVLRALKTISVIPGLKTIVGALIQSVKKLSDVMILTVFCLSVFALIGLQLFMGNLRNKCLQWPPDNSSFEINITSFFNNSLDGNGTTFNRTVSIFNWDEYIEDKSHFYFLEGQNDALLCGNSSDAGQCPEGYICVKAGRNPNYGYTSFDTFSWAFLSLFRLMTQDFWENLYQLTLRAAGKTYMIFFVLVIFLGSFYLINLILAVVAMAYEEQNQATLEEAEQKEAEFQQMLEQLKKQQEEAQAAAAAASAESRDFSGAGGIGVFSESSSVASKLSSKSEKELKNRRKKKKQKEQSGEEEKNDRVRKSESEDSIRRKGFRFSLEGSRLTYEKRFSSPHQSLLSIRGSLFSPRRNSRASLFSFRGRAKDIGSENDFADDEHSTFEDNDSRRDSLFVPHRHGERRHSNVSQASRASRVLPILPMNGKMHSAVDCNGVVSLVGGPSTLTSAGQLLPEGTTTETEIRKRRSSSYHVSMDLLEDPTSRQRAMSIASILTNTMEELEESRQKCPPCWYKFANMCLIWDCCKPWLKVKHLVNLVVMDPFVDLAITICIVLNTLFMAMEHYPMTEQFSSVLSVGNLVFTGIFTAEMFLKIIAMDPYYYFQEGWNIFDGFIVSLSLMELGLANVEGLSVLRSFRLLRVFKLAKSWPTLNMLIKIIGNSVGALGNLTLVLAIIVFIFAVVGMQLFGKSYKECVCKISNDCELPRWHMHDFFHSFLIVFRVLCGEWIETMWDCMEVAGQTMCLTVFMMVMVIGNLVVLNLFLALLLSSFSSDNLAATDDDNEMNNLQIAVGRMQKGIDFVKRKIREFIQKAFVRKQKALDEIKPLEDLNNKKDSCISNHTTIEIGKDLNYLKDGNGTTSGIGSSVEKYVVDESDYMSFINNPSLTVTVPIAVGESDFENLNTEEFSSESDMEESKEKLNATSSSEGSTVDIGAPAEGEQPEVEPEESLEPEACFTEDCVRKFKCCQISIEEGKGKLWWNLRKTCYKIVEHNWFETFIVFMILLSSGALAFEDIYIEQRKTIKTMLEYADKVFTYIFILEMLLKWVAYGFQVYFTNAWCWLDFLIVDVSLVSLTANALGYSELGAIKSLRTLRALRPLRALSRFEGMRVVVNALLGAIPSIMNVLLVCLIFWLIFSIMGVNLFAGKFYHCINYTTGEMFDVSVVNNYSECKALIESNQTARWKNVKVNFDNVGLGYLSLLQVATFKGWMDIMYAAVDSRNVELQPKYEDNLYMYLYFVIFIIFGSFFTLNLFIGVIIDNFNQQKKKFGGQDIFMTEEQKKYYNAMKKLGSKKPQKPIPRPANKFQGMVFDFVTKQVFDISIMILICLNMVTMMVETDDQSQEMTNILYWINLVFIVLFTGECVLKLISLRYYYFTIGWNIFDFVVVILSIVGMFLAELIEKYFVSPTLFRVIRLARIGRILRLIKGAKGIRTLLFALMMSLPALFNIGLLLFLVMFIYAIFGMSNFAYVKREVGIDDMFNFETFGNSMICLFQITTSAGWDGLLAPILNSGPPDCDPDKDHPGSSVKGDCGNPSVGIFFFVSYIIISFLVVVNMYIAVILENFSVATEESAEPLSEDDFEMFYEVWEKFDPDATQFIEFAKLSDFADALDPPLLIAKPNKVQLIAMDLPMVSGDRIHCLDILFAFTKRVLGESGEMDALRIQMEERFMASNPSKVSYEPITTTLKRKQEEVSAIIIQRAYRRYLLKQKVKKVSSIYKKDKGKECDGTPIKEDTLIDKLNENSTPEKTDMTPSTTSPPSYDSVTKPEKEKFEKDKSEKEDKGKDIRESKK

[2] = molecular target: Sodium channel protein type 2 subunit alpha (Homo sapiens) (UniProt Q99250); experiment: Inhibition of Nav1.2 channel in HEK cells at 100 uM by patch clamp technique; assay type: cell-based; design: scale not given: the % may be the effect or the level left; details: HEK293

| SMILES | Activity [1] [%] | Activity [2] [%] |
| --- | --- | --- |
| O=C1NC(=O)C(c2ccccc2)(c2ccccc2)N1 | 10.6 | 21.2 |
| c1ccc(-c2c[nH]c(-c3ccco3)n2)cc1 | 2.7 | 37.7 |
| c1ccc(-c2c[nH]c(-c3cccnc3)n2)cc1 | 4.7 | 22.5 |
| c1ccc(-c2c[nH]c(-c3ccccc3)n2)cc1 | 7.8 | 80.5 |
| c1ccc(-c2c[nH]c(-c3ccsc3)n2)cc1 | 5.1 | 70.9 |
| Nc1nnc(-c2cccc(Cl)c2Cl)c(N)n1 | 12.1 | 35.1 |
| c1ccc(-c2c[nH]c(-c3ccncc3)n2)cc1 | 8 | 40.7 |
| c1ccc(-c2c[nH]c(C3CCCCC3)n2)cc1 | 26.7 | 91.5 |
| c1ccc(-c2c[nH]c(-c3cc4ccccc4o3)n2)cc1 | 37.7 | 72.4 |
| c1ccc(-c2c[nH]c(-c3ccoc3)n2)cc1 | 11.9 | 27.3 |
